# According to PMC7738869, “A novel STAT3 inhibitor W2014-S regresses human non-small cell lung cancer xenografts and sensitizes EGFR-TKI acquired resistance” (Theranostics, 2021):
# Values joined by “and” are separate entries in the source; they are usually repeats but may differ in a detail not shown here. Equal values may be shown once. Read-outs that look alike come from different tables or passages of the source.
# Assay: Pharmacokinetic study
# Type: in vivo, SD rats
# Experimental: W2014-S was given to SD rats (male, 230-260g, n = 6) by gavage and intravenous administration. The rats were fasted for 12 h before administration and remained fasting for 2 h. For oral gavage, W2014-S was dissolved in DMSO/0.5% HPMC (5/95, v/v/), and W2014-S was dissolved in DMSO/EtOH/PEG300/0.9% NaCl (5/5/40/50, v/v/v/v) for intravenous administration. The pharmacokinetic (PK) profiles were next evaluated in SD rats.
# [1] = rat, i.v. 3 mg/kg, individual animals 4-6, 3 mg/kg
# [2] = rat, p.o. 10 mg/kg, individual animals 1-3, 10 mg/kg
smiles,measurement,setting,value
C[C@H](Oc1ccc(-c2nc3nc(C4=CCN(C(=O)OC(C)(C)C)CC4)ccc3[nH]2)cc1)c1ccccc1 [W2014-S],concentration at 2 h,"male, SD, rat, plasma, po, 10 mg/kg, p.o. 10 mg/kg, 2.00 h, read-out: Concentration in rat plasma, mean",7.23 ng/mL
same,concentration at 4 h,"male, SD, rat, plasma, po, 10 mg/kg, p.o. 10 mg/kg, 4.00 h, read-out: Concentration in rat plasma, mean",7.83 ng/mL
same,concentration at 8 h,"male, SD, rat, plasma, po, 10 mg/kg, p.o. 10 mg/kg, 8.00 h",0.633 ng/mL
same,concentration at 24 h,"male, SD, rat, plasma, po, 10 mg/kg, p.o. 10 mg/kg, 24.0 h, read-out: Concentration in rat plasma, mean",0 ng/mL
same,half-life,"male, SD, rat, plasma, po, 10 mg/kg, p.o. 10 mg/kg, individual animals 1-3",72.6 min
same,AUC(0-inf),"male, SD, rat, plasma, po, 10 mg/kg, rat, p.o. 10 mg/kg, individual animals 1-3, read-out: AUCINF_obs",57.9 ng·h/mL
same,AUC(0-t),"male, SD, rat, plasma, po, 10 mg/kg, rat, p.o. 10 mg/kg, individual animals 1-3, read-out: AUClast",54.6 ng·h/mL
same,half-life,"male, Sprague-Dawley (SD), rat, plasma, iv, 3 mg/kg, SD rats, 3 mg/kg iv, mean",816 min
same,AUC(0-inf),"male, Sprague-Dawley (SD), rat, plasma, iv, 3 mg/kg, SD rats, 3 mg/kg iv, mean, read-out: AUC0-inf",244 ng·h/mL
same,AUC(0-t),"male, Sprague-Dawley (SD), rat, plasma, iv, 3 mg/kg, SD rats, 3 mg/kg iv, mean, read-out: AUC0-last",222 ng·h/mL
same,clearance,"male, Sprague-Dawley (SD), rat, plasma, iv, 3 mg/kg, SD rats, 3 mg/kg iv, mean, read-out: CL",206 mL/min/kg
same,half-life,"male, Sprague-Dawley (SD), rat, plasma, po, 10 mg/kg, SD rats, 10 mg/kg po, mean",87.6 min
same,AUC(0-inf),"male, Sprague-Dawley (SD), rat, plasma, po, 10 mg/kg, SD rats, 10 mg/kg po, mean, read-out: AUC0-inf",56.1 ng·h/mL
same,AUC(0-t),"male, Sprague-Dawley (SD), rat, plasma, po, 10 mg/kg, SD rats, 10 mg/kg po, mean, read-out: AUC0-last",54.6 ng·h/mL
same,Cmax,"male, Sprague-Dawley (SD), rat, plasma, po, 10 mg/kg, SD rats, 10 mg/kg po, mean, read-out: Cmax",23.8 ng/mL
same,Tmax,"male, Sprague-Dawley (SD), rat, plasma, po, 10 mg/kg, SD rats, 10 mg/kg po, mean, read-out: Tmax",1.67 h
same,MRT inf,"male, Sprague-Dawley (SD), rat, plasma, po, 10 mg/kg, rat, p.o. 10 mg/kg, mean, read-out: MRTINF_obs",2.61 h
same,Vd,"male, Sprague-Dawley (SD), rat, plasma, SD rats, 3 mg/kg iv, mean, read-out: Vss",77.5 L/kg
same,bioavailability,"male, Sprague-Dawley (SD), rat, plasma, SD rats, 10 mg/kg po vs 3 mg/kg iv",7.39%
same,"Concentration in rat plasma, individual animals 1-3","p.o. 10 mg/kg, 0.25 h, 10 mg/kg",29.9 ng/mL and 7.10 ng/mL and 21.9 ng/mL
same,"Concentration in rat plasma, individual animals 1-3","p.o. 10 mg/kg, 0.50 h, 10 mg/kg",10.0 ng/mL and 27.4 ng/mL and 30.0 ng/mL
same,"Concentration in rat plasma, individual animals 1-3","p.o. 10 mg/kg, 1.00 h, 10 mg/kg",8.00 ng/mL and 18.7 ng/mL and 21.7 ng/mL
same,"Concentration in rat plasma, individual animals 1-3","p.o. 10 mg/kg, 2.00 h, 10 mg/kg",9.40 ng/mL and 6.60 ng/mL
same,"Concentration in rat plasma, individual animals 1-3","p.o. 10 mg/kg, 4.00 h, 10 mg/kg",13.9 ng/mL and 4.80 ng/mL (2×)
same,"Concentration in rat plasma, individual animals 1-3","p.o. 10 mg/kg, 8.00 h, 10 mg/kg",1.20 ng/mL and 0.400 ng/mL and 0.300 ng/mL
same,"Concentration in rat plasma, individual animals 1-3","p.o. 10 mg/kg, 24.0 h, BLQ: Below LLOQ (LLOQ = 0.3 ng/mL)",BLQ
same,AUCINF_obs,[1],247 ng·h/mL and 255 ng·h/mL
same,AUClast,[1],220 ng·h/mL and 236 ng·h/mL
same,CL_obs,[1],202 mL/min/kg and 196 mL/min/kg
same,MRTINF_obs,[1],7.48 h and 5.59 h
same,T1/2,[1],14.2 h and 11.2 h
same,Vss_obs,[1],76143 mL/kg and 90763 mL/kg and 65720 mL/kg
same,Vss_obs,"rat, i.v. 3 mg/kg, mean",77542 mL/kg
same,AUCINF_obs,[2],55.3 ng·h/mL and 55.0 ng·h/mL
same,AUClast,[2],54.5 ng·h/mL
same,Cmax,[2],13.9 ng/mL and 27.4 ng/mL and 30.0 ng/mL
same,MRTINF_obs,[2],3.89 h and 2.08 h and 1.87 h
same,T1/2,[2],1.88 h and 1.29 h
same,Tmax,[2],4.00 h and 0.50 h (2×)
